US20070249526A1, “PROCESS FOR THE PREPARATION OF CYCLIC PEPTIDES” (priority 2003, published 2007)

Assays:
[1] = test system: rat models of human disease; conditions: literature refs 10-15; cited from earlier work
human C5a receptor [2] = biological target: T1, human C5a receptor (Homo sapiens, UniProt P21730); conditions: literature refs 6-9; cited from earlier work
T1 construct: host or cells: human cells; neutrophils, macrophages, polymorphonuclear leukocytes
T1 sequence (P21730 1-350): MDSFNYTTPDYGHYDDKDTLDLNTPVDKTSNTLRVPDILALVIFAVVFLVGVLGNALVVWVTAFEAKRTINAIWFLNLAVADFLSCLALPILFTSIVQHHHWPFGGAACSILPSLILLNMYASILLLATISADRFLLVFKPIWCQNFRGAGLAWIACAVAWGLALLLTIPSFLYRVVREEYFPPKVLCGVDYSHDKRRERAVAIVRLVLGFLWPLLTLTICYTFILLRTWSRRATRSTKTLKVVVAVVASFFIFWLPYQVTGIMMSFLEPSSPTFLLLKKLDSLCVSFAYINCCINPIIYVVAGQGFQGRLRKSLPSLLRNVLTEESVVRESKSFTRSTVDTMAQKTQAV

physchem = assay type: physicochemical
Protocol: The crude product of Example 15 was purified by prep HPLC using 0.5% AcOH in water and 0.5% AcOH in 90% ACN in water as buffers. The crude product was purified in a gradient program and major fraction was collected. After lyophilization, it gave a white powder which failed the solubility test at 10 mg/ml. ^19F NMR confirmed that there were still two TFA salts in the formula (FIG. 1). This product was repurified on the prepHPLC once more, the major fraction was collected and lyophilized to give 3D53. 12 mg of this product dissolved in 1 ml water gave a clear solution.

human C5a receptor [3] = biological target: T1, human C5a receptor; conditions: literature refs 6-9; cited from earlier work; remark: listed apart in the source

solubility (physchem): < 10 mg/mL | amount dissolved giving a clear solution (physchem; in 1 ml water, product repurified by prepHPLC, no TFA salt by 19F NMR): ≥ 12 mg
Structure (SMILES): CC(=O)N[C@@H](Cc1ccccc1)C(=O)N[C@H]1CCCNC(=O)[C@H](CCCNC(=N)N)NC(=O)C(Cc2c[nH]c3ccccc23)NC(=O)[C@@H](CC2CCCCC2)NC(=O)C2CCCN2C1=O (stereo partly drawn) [Compound 1, Ac-Phe[Orn-Pro-D-Cha-Trp-Arg]]
inhibition in vivo in rat models of human disease [1]: potent inhibition | inhibition in vitro of C5a binding to human cells (human C5a receptor [2]): potent inhibition | inhibition in vitro of C5a-mediated activation of neutrophils and macrophages, chemotaxis, and cytokine release (human C5a receptor [3]): potent inhibition
